Experimental data: ChEMBL document CHEMBL1141671, “N6-1,3-diphenylurea derivatives of 2-phenyl-9-benzyladenines and 8-azaadenines: synthesis and biological evaluation as allosteric modulators of A2A adenosine receptors” (Eur J Med Chem, 2008)

Legend:
[1] = target: T1, Adenosine receptor A1 (Rattus norvegicus) (UniProt P25099); experiment: Displacement of [3H]DPCPX from adenosine A1 receptor in Wistar rat cerebral cortex at 10 uM by liquid scintillation counting relative to control; type: tissue-based
T1 sequence (whole entry): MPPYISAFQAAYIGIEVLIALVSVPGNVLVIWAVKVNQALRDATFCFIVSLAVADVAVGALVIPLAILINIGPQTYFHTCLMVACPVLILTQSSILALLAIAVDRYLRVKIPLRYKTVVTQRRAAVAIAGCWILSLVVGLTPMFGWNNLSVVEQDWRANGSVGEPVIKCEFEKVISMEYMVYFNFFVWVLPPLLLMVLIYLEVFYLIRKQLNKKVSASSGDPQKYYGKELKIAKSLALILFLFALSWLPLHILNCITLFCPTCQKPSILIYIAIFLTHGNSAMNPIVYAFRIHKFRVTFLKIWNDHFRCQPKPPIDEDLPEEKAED

Adenosine receptor A1 [2] = target: T2, Adenosine receptor A1 (Rattus norvegicus, UniProt P25099); experiment: Displacement of [3H]DPCPX from adenosine A1 receptor in Wistar rat cerebral cortex by liquid scintillation counting; type: tissue-based
T2 sequence (P25099 whole entry): T1 sequence (whole entry)

[3] = target: T1, Adenosine receptor A1 (Rattus norvegicus); experiment: Displacement of [3H]CCPA adenosine A1 receptor in Wistar rat cerebral cortex at 10 uM by liquid scintillation counting relative to control; type: tissue-based
Adenosine receptor A1 [4] = target: T2, Adenosine receptor A1; experiment: Displacement of [3H]CCPA from adenosine A1 receptor in Wistar rat cerebral cortex by liquid scintillation counting; type: tissue-based
Adenosine receptor A2a [5] = target: T3, Adenosine receptor A2a (Homo sapiens, UniProt P29274); experiment: Displacement of [3H]ZM241385 from human recombinant adenosine A2A receptor expressed in CHO cells at 10 uM by liquid scintillation counting relative to control; type: cell-based
Adenosine receptor A2a [6] = target: T3, Adenosine receptor A2a; experiment: Displacement of [3H]ZM241385 from human recombinant adenosine A2A receptor expressed in CHO cells by liquid scintillation counting; type: cell-based
Adenosine receptor A2a [7] = target: T3, Adenosine receptor A2a; experiment: Displacement of [3H]CGS21680 from human recombinant adenosine A2A receptor expressed in CHO cells at 10 uM by liquid scintillation counting relative to control; type: cell-based
Adenosine receptor A2a [8] = target: T3, Adenosine receptor A2a; experiment: Displacement of [3H]CGS21680 from human recombinant adenosine A2A receptor expressed in CHO cells by liquid scintillation counting; type: cell-based
[9] = target: T4, Adenosine receptor A3 (Homo sapiens) (UniProt P0DMS8); experiment: Displacement of [3H]NECA from human recombinant adenosine A3 receptor expressed in CHO cells at 10 uM by liquid scintillation counting relative to control; type: cell-based
T4 sequence (whole entry): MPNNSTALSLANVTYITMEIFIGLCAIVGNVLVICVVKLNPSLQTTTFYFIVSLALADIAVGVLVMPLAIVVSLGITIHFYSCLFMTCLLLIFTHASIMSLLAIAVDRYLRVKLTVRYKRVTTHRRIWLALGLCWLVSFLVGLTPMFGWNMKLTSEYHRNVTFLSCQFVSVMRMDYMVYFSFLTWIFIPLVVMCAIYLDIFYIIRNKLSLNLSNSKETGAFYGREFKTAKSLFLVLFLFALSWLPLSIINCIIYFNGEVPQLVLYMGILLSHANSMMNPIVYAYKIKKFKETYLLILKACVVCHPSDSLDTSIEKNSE

Aorta [10] = experiment: Vasorelaxation activity in Wistar rat endothelium-intact aortic ring assessed as inhibition of noradrenaline-induced contraction after 20 mins; details: read-out: pIC50 (converted)
Aorta [11] = experiment: Vasorelaxation activity in Wistar rat endothelium-intact aortic ring assessed as inhibition of noradrenaline-induced contraction at 10 uM after 20 mins; type: functional
Aorta [12] = experiment: Potentiation of CGS-21680-induced vasorelaxation activity in Wistar rat endothelium-intact aortic ring assessed as inhibition of noradrenaline-induced contraction at 10 uM after 20 mins; type: functional
Aorta [13] = experiment: tissue or blood; details: Rattus norvegicus, Wistar, 20 min, read-out: pIC50 (converted)
Adenosine receptor A2a [14] = target: T3, Adenosine receptor A2a; details: CHO
Description: Dissociation of [3H]ZM241385 from human adenosine A2A receptor expressed in CHO cells at 100 uM by liquid scintillation counting relative to control

Adenosine receptor A2a [15] = target: T3, Adenosine receptor A2a; details: CHO; remark: listed apart in the source
Description: Displacement of [3H]ZM241385 from human adenosine A2A receptor expressed in CHO cells assessed as time course of dissociation at 10 uM by liquid scintillation counting relative to control

Adenosine receptor A3 = target: T5, Adenosine receptor A3 (Homo sapiens, UniProt P0DMS8); experiment: Displacement of [3H]NECA from human recombinant adenosine A3 receptor expressed in CHO cells by liquid scintillation counting; type: cell-based
T5 sequence (P0DMS8 whole entry): T4 sequence (whole entry)

T3 sequence (P29274 whole entry): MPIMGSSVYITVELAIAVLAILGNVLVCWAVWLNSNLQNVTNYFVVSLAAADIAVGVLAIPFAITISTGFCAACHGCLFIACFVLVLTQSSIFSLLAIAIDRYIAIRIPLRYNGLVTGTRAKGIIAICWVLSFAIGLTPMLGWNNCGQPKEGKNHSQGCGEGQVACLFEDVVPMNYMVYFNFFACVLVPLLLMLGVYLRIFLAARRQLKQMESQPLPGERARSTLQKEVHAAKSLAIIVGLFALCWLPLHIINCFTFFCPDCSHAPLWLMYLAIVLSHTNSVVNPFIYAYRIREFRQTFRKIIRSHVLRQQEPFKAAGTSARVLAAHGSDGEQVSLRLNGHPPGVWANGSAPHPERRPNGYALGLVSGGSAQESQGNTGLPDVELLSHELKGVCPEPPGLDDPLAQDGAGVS

| Compound | Activity [1] [%] | Activity [3] [%] | Activity (Adenosine receptor A2a [5]) [%] | Activity (Adenosine receptor A2a [7]) [%] | Activity [9] [%] | further results |
| --- | --- | --- | --- | --- | --- | --- |
| Nc1ccc(Nc2nc(-c3ccccc3)nc3c2ncn3Cc2ccccc2)cc1 | 46 | 7 | 59 | 44 | 56 | Ki (Adenosine receptor A1 [2]): 396 nM; Ki (Adenosine receptor A1 [4]): 294 nM; Ki (Adenosine receptor A2a [6]): 5740 nM; Ki (Adenosine receptor A2a [8]): 4170 nM |
| O=[N+]([O-])c1ccc(Nc2nc(-c3ccccc3)nc3c2nnn3Cc2ccccc2)cc1 | 105 | 33 | 98 | 96 | 58 |  |
| O=[N+]([O-])c1ccc(Nc2nc(-c3ccccc3)nc3c2ncn3Cc2ccccc2)cc1 | 84 | 2 | 84 | 114 | 51 | Ki (Adenosine receptor A1 [2]): 699 nM; Ki (Adenosine receptor A1 [4]): 571 nM; Ki (Adenosine receptor A2a [6]): 1900 nM |
| O=C(Nc1ccccc1)Nc1ccc(Nc2nc(-c3ccccc3)nc3c2nnn3Cc2ccccc2)cc1 | 110 | 79 | 133 | 57 | 78 |  |
| CCNC(=O)[C@H]1O[C@@H](n2cnc3c(N)nc(NCCc4ccc(CCC(=O)O)cc4)nc32)[C@H](O)[C@@H]1O [CGS-21680] |  |  |  |  |  | IC50 (Aorta [10]): 263 nM; Emax at 10 µM (Aorta [11]): 76%; Emax at 10 µM (Aorta [12]): 91%; IC50 (Aorta [13]): 69.2 nM |
| Nc1ccc(Nc2nc(-c3ccccc3)nc3c2nnn3Cc2ccccc2)cc1 | 33 | 4 | 77 | 0 | 49 | EC50 (Adenosine receptor A1 [2]): 750 nM; Ki (Adenosine receptor A1 [2]): 132 nM; Ki (Adenosine receptor A1 [4]): 103 nM; EC50 (Adenosine receptor A2a [6]): 9740 nM; Ki (Adenosine receptor A2a [6]): 1300 nM; Ki (Adenosine receptor A2a [8]): 280 nM; Kdiss (Adenosine receptor A2a [14]): 0.078 s⁻¹; T1/2 (Adenosine receptor A2a [15]): 8.89 s |

Now from value to molecule, other results behind:

| Activity [1] [%] | Activity [3] [%] | Activity (Adenosine receptor A2a [5]) [%] | Activity (Adenosine receptor A2a [7]) [%] | Activity [9] [%] | Compound | further results |
| --- | --- | --- | --- | --- | --- | --- |
| 107 | 68 | 166 | 120 | 56 | COc1ccc(NC(=O)Nc2ccc(Nc3nc(-c4ccccc4)nc4c3ncn4Cc3ccccc3)cc2)cc1 |  |
| 101 | 73 | 107 | 74 | 53 | O=C(Nc1ccccc1)Nc1ccc(Nc2nc(-c3ccccc3)nc3c2ncn3Cc2ccccc2)cc1 |  |
| 94 | 74 | 127 | 180 | 72 | O=C(Nc1ccc(Nc2nc(-c3ccccc3)nc3c2nnn3Cc2ccccc2)cc1)Nc1ccc(C(F)(F)F)cc1 |  |
| 107 | 72 | 167 | 176 | 92 | O=C(Nc1ccc(F)cc1)Nc1ccc(Nc2nc(-c3ccccc3)nc3c2nnn3Cc2ccccc2)cc1 | EC50 (Adenosine receptor A2a [6]): 16000 nM; EC50 (Adenosine receptor A2a [8]): 9950 nM; Kdiss (Adenosine receptor A2a [14]): 0.052 s⁻¹; T1/2 (Adenosine receptor A2a [15]): 13.2 s |
| 106 | 67 | 149 | 57 | 37 | O=C(Nc1ccc(Nc2nc(-c3ccccc3)nc3c2ncn3Cc2ccccc2)cc1)Nc1ccc(C(F)(F)F)cc1 | Ki (Adenosine receptor A3): 5610 nM |
| 105 | 74 | 142 | 59 | 58 | COc1ccc(NC(=O)Nc2ccc(Nc3nc(-c4ccccc4)nc4c3nnn4Cc3ccccc3)cc2)cc1 |  |
| 105 | 85 | 111 | 83 | 70 | O=C(Nc1ccc(F)cc1)Nc1ccc(Nc2nc(-c3ccccc3)nc3c2ncn3Cc2ccccc2)cc1 |  |
